The text below walks through data of patent publication US20260078089A1, “BIOACTIVE PHYTOCHEMICALS IN ZIZYPHUS AND GUARANA” (Phytoquest Limited, priority 2018, published 2026).

One test has as its system β-D-galactosidase. In words: Glycosidase assay, p-nitrophenyl substrate. It counts as biochemical. As to conditions: Bovine liver enzyme; screened at 0.14 mg mL−1 (footnote: 0.4 mM). As to the method:
(§1) Glycosidase assays were conducted as described by Watson et al. (Phytochemistry 1997, 46, 255) using p-nitrophenyl-substrates (except sialidase which used methylumbeliferyl-N-acetyineuraminic acid as substrate). Assays were carried out in microtitre plates. Enzymes were assayed in 0.1 M citric acid/0.2 M di-sodium hydrogen phosphate (McIlvaine) buffers at the optimum pH for the enzyme. All assays were carried out at 20° C. All enzymes and substrates were purchased from Sigma Aldrich Chemicals Limited. The incubation mixture consisted of 10 μl of enzyme solution, 10 μl of the iminosugars solution and 50 μl of the appropriate 5 mM p-nitrophenyl substrate made up in McIlvaine buffer at the optimum pH for the enzyme. The reactions were stopped with 0.4 M glycine (pH 10.4) during the exponential phase of the reaction. Absorbances were read at 405 nm. Water was substituted for the alkaloids in the blanks. Reactions were carried out in triplicate.
(§2) Enzyme inhibitor solutions—Compounds were dissolved in distilled water at a concentration of 1 mg mL^−1 and then screened at a concentration of 0.14 mg mL^−1 after dilution of the 1 mg mL^−1 in the assay volumes of substrates.

Another test has as its system α-D-glucosidase. In words: Glycosidase assay, p-nitrophenyl substrate. It counts as biochemical. As to conditions: Bacillus sterothermphilus enzyme; screened at 0.14 mg mL−1 (footnote: 0.4 mM). As to the method:
as §1, §2

Another test concerns the target T1, α-L-fucosidase (Bos taurus, UniProt Q2KIM0).
T1 construct: purchased Sigma Aldrich Chemicals Limited
T1 sequence (Q2KIM0 23-468): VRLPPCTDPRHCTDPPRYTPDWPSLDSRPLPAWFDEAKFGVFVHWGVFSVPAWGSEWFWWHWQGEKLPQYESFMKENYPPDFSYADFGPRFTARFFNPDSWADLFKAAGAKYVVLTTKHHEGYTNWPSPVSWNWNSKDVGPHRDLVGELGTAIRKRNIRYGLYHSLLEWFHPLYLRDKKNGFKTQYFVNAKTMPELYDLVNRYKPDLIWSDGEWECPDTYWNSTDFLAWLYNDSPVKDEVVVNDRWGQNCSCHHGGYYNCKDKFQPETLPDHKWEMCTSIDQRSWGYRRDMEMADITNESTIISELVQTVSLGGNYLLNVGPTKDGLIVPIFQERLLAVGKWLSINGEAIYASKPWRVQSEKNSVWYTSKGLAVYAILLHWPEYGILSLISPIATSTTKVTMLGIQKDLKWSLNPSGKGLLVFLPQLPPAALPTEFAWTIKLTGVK
In words: Glycosidase assay, p-nitrophenyl substrate. It counts as biochemical. As to conditions: Bovine kidney enzyme; screened at 0.14 mg mL−1 (footnote: 0.4 mM). As to the method:
as §1, §2

Test [1] deals with sialidase (NanH from T. forsythia). In words: Sialidase assay with MUNANA substrate. It counts as biochemical, Tannerella forsythia. As to conditions: 1 mM inhibitor, 2.5 nM sialidase, 0.1 mM MUNANA, pH 7.2. As to the method: Sialidase assays used 1 mM inhibitor (or water without inhibitor) and 2.5 nM sialidase (including NanH from T. forsythia) incubated in the presence of 0.1 mM methylumbeliferyl-N-acetylneuraminic acid, pH 7.2 in 20 mM sodium phosphate buffer. Reactions were stopped at 30 seconds and 60 seconds via addition of ph 10.5 60 mM sodium carbonate buffer. Release of fluorogenic MU was quantified by measuring fluorescence emission at 450 nm, excitation 350 nm. Percentage sialidase activity was expressed as the change in fluorescence between 30 seconds and 60 seconds compared to that of a reaction without inhibitor. Reactions were carried out in triplicate.
MU release can be used to quantify sialidase activity.
1 mM inhibitor (or water without inhibitor) and 2.5 nM sialidase (including NanH from T. forsythia) was incubated in the presence of 0.1 mM MUNANA, pH 7.2 20 mM Sodium Phosphate buffer. Reactions were stopped at 30 seconds and 60 seconds via addition of ph 10.5 60 mM sodium carbonate buffer. Release of fluorogenic MU was quantified by measuring fluorescence emission at 450 nm, excitation 350 nm. Percentage sialidase activity was expressed as the change in fluorescence between 30 seconds and 60 seconds compared to that of a reaction without inhibitor. Reactions were carried out in triplicate.

A further test deals with glucosidases. In words: Glycosidase panel, glucosidases overall. It counts as biochemical. As to conditions: panel of glucosidases. As to the method:
Glycosidase assays were conducted on Compounds 1 and 3 and an extract of Zizyphus used in the disaccharide loading mouse studies to determine if glucosidase inhibition might explain the effects on blood glucose. A panel of glycosidases were used to be sure any activity found was a selective inhibition and not just non-specific binding to the enzyme.
as §1, with “triplicate. […]” for “triplicate.”

In another test the test system is male ddy mouse. Briefly: Sucrose loading test, blood glucose in mice. It counts as in vivo. As to conditions: oral sucrose 2.5 g/kg, test sample 500 mg/kg body weight, mean n = 5. As to the method:
The animal experimental protocols in this study were approved by the Animal Experiments Committee of the University of Toyama (S-2010 UH-2). Male ddy mice (29-33 g) after an overnight fast were used for acute disaccharide loading tests. Maltose (2.5 g/kg body weight) or Sucrose (2.5 g/kg body weight) as well as the test samples were dissolved in 0.9% NaCl solution and administered to mice via a stomach tube. A control group was loaded with saline only.
Blood samples for glucose measurements were obtained from the tail vein at 0, 15, 30, 60, and 120 min after disaccharide-loading. The blood glucose levels were measured by a portable kit, Antsence II™ (Sankyo Co. Ltd. Tokyo, Japan). The Zizyphus extract HS0810/142/41 as well as the purified compounds were tested in this way.

Consider `OC[C@H]1N[C@H](CO)[C@@H](O)[C@@H]1O` [DMDP], for which the “% inhibition” value in the test with β-D-galactosidase is 98.75%; in the test on α-D-glucosidase, 92.98%; at α-L-fucosidase, 4.84%; in test [1] it was −2%. The “glucosidase inhibition (in words)” value in the test on glucosidases is “expected strong inhibition of various glucosidases”. Also, the blood glucose worked out at 98 mg/dL with male ddy mouse (0 min after administration); 115 mg/dL in the test with male ddy mouse (15 min after administration); 100 mg/dL in the test with male ddy mouse (30 min after administration); 88 mg/dL in the test on male ddy mouse (60 min after administration); 53 mg/dL with male ddy mouse (120 min after administration).
